For data set [1], the target named is T1, c-Src (Homo sapiens, UniProt P12931).
T1 construct: His6 (N); purchased Merck-Millipore 14–326
Put plainly: c-Src kinase inhibition assay (ADP-Glo Kinase Assay). The format is biochemical. The settings on record: Table 3; for inhibition at 100 µM: read-out: % Inhibition 100 µM; for IC50: read-out: ID50 (the source's name). Here is the method:
To avoid peptide adsorption to the plastic surface, protein low-binding tubes were used. ADP-Glo Kinase Assay (Promega) was then used to detect kinase activity accordingly with manufacturer’s instruction with minor modifications. In details, reactions were transferred to white 384 well-plates and stopped by adding 10 µL of ADP-Glo Reagent (Promega) for 50 min at rt. 20 μL of Detection Reagent (Promega) was then added for 30 min and the reaction read using GloMax Discover microplate reader (Promega). Data were plotted using GraphPad Prism 5.0. […] Compounds tested were assumed to act as fully ATP-competitive inhibitors. Therefore, Ki values were calculated accordingly to Equation (2).
Background: In ADP-Glo the light output rises with the ADP produced.

For data set [2], the system named is human MCF7 breast cancer cell line. The experiment in a line: Cytotoxicity, growth inhibition MTS assay. It counts as cell-based. The settings on record: mean ± SD, triplicate; for IC50: Homo sapiens, MCF7, 72 h exposure, read-out: MCF-7 (IC50); for MCF-7 (IC50, μM): 72 h exposure. Here is the method:
Cytotoxicity experiments were carried out using the human MCF7 breast cancer cell line (ATCC HTB-22). […] Compound potency was determined by a growth inhibition assay (CellTiter 96® Aqueous One Solution Cell Proliferation Assay MTS, Promega). 24 h after seeding in a 96-well plate, cells were exposed to the compounds (concentration range 1–100 µM) and 72 h later, 20 µL of 3–(4,5-dimethylthiazol-2-yl)-5–(3-carboxymethoxyphenyl)-2–(4-sulfophenyl)-2H-tetrazolium salt (MTS) was added to each well. […] Experiments were performed in triplicate.

The mark [3] stands for this setting: 10 µM compound, tested as E/Z mixtures.
Setting [4] is: 100 µM compound, tested as E/Z mixtures.
[5] abbreviates: calculated from ID50 assuming fully ATP-competitive inhibition.

“Also recorded” adds a separate entry of the source. Some results are limits rather than exact numbers.

T1 sequence (P12931 whole entry): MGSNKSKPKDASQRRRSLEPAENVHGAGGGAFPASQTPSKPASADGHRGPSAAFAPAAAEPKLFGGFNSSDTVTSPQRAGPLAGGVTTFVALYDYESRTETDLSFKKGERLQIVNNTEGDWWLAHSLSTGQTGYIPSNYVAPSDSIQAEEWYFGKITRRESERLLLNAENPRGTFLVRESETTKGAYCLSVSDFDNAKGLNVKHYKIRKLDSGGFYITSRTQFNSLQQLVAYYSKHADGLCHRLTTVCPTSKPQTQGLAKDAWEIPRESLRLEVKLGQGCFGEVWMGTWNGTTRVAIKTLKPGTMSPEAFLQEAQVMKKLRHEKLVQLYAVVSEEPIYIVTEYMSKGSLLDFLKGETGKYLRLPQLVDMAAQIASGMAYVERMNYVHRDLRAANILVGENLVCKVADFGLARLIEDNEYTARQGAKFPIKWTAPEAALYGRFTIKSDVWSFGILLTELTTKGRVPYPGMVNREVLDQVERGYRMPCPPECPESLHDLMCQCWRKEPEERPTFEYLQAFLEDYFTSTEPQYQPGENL

A word on the inhibition: it is the share of the control response that was lost under treatment. As a reminder, the Ki is the dissociation constant of the complex between target and ligand, obtained from inhibition or displacement. As a reminder, the melting point is the temperature of the solid-liquid transition. Consider `O=C1Nc2cc(Cl)ccc2C1=Cc1ccc([N+](=O)[O-])cc1` [Compound 33, 6-chloro-3–(4-nitrobenzylidene)indolin-2-one], for which the melting point is 322 to 323 °C (dec.). Further, the inhibition at 10 µM in data set [1] (setting [3]) worked out at 53 ± 18.1%. Also, the inhibition at 100 µM in data set [1] (setting [4]) is 69.94 ± 0.19%. In data set [1] (100 μM ATP), the ID50 entry is reported as “single-digit micromolar” and the IC50 came out at 2.43 µM. Moreover, in data set [1] (setting [5]), the Ki is 1.64 µM and the “Ki (ATP competitive)” value is “single-digit micromolar”. Moreover, the IC50 in data set [2] is greater than 100 µM.
As to `CN(C)c1ccc(C=C2C(=O)Nc3cc(Cl)ccc32)cc1` [Compound 34, 6-chloro-3–(4-(dimethylamino)benzylidene)indolin-2-one], the melting point was in the range of 253 to 254 °C. Also, the inhibition at 10 µM in data set [1] (setting [3]) was 85%. In addition, in data set [1] (10 µM compound, tested as E/Z mixtures, listed as C00033, 10 µM), the “% Inhibition 10 µM” value was found to be 85.35 ± 6.98%. Further, the inhibition at 100 µM in data set [1] (setting [4]) is 75.7 ± 7.63%. Further, the IC50 in data set [1] (100 μM ATP) stood at 0.71 µM. In addition, in data set [1] (setting [5]), the Ki is 0.48 µM. Moreover, in data set [2], the “MCF-7 (IC50, μM)” value was “did not show any cytotoxic activity” and the IC50 was greater than 100 µM.
For the molecule `CCOC(=O)COc1ccc(C=C2C(=O)Nc3cc(Cl)ccc32)cc1` [Compound 43, Ethyl 2–(4-((6-chloro-2-oxoindolin-3-ylidene)methyl)phenoxy) acetate], the melting point is 158 to 159 °C. Also, the inhibition at 10 µM in data set [1] (setting [3]) is 71.7 ± 2.27%. The “% Inhibition 100 µM” value in data set [1] (100 µM compound, tested as E/Z mixtures, 100 µM) was “good activity”. The inhibition at 100 µM in data set [1] (setting [4]) is 80.8 ± 6.47%. Further, the IC50 in data set [1] (100 μM ATP) amounted to 3.24 µM. For the same molecule, the IC50 in data set [2] was 85 ± 2 µM.
Regarding `O=C1Nc2cc(Cl)ccc2C1=Cc1cnc(Br)s1` [Compound 49, 3-((2-bromothiazol-5-yl)methylene)-6-chloroindolin-2-one], the melting point is 262 to 263 °C (dec.). In data set [1] (setting [3]), the inhibition at 10 µM was found to be 53.9 ± 26.6%. Also, in data set [1] (setting [4]), the inhibition at 100 µM was determined as 76.8 ± 9.22%. For the same molecule, the IC50 in data set [1] (100 μM ATP) was greater than 10 µM. In data set [2], the “MCF-7 (IC50, μM)” value is listed as “potency comparable to Dasatinib; also recorded: cytotoxicity comparable to that of the reference compound Dasatinib” and the IC50 was found to be 33 ± 2 µM.
`O=C1Nc2cc(Cl)ccc2C1=Cc1ccc2[nH]ccc2c1` [Compound 50, 3-((1H-indol-5-yl)methylene)-6-chloroindolin-2-one] came in with a melting point of 238 to 239 °C. Moreover, in data set [1] (setting [3]), the inhibition at 10 µM was 41.2 ± 1.12%. Further, the inhibition at 100 µM in data set [1] (setting [4]) came to 96.1 ± 1.42%. Further, the IC50 in data set [1] (100 μM ATP) worked out at 9.14 µM. In addition, the Ki in data set [1] (setting [5]) is 6.17 µM. The IC50 in data set [2] is 68 ± 2 µM.
